Test results from patent US11261179B2, “Small molecules” (University of Dundee, priority 2017, dated 2022).

Target: VCB complex (Homo sapiens, UniProt P40337)
Assay: Size exclusion chromatography of VCB complex formation
Format: binding
Conditions: SEC, VCB 50 μM, compound 30 μM
Description: SEC experiments were carried out in a AKTA pure system (GE Healthcare) at room temperature. The oligomeric state of the VCB complex in solution was analyzed by gel filtration in a buffer containing 20 mM Bis-Tris (pH 7), 150 mM NaCl and 1 mM 1,4-dithiothreitol (DTT) using a Superdex 200 Increase 10/300 GL column (GE Healthcare) calibrated with globular proteins of known molecular weight (GE Healthcare, 28-4038-41/42). […] Sample volume for each injection was 200 μL, and the flow rate was 0.5 mL/min. Peak elution was monitored using ultraviolet absorbance at 280 nm.

Sequence of VCB complex (P40337 54-213 limits assumed): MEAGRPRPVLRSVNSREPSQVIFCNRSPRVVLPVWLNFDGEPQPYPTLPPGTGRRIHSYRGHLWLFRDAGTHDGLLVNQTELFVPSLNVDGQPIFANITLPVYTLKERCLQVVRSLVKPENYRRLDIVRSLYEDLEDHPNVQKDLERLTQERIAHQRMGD
Sequence of VCB complex (Q15370 1-104 partner limits assumed): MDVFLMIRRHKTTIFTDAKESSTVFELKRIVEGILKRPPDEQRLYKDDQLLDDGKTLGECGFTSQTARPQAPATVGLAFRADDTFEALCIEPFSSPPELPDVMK
Sequence of VCB complex (Q15369 17-112 partner limits assumed): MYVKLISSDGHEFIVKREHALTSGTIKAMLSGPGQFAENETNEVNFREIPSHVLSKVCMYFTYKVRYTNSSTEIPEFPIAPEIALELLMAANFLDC

molecular weight of species of shifted peak: ~90 kDa | shift of VCB peak / ternary complex formation: migrates more quickly
SMILES: Cc1ncsc1-c1ccc(CNC(=O)[C@@H]2C[C@@H](O)CN2C(=O)[C@@H](NC(=O)COCCOCCOCCOCCOCCOCC(=O)N[C@H](C(=O)N2C[C@H](O)C[C@H]2C(=O)NCc2ccc(-c3scnc3C)cc2)C(C)(C)C)C(C)(C)C)cc1 [CM11, N^1,N^20-bis((S)-1-((2S,4R)-4-hydroxy-2-((4-(4-methylthiazol-5-yl)benzyl)carbamoyl)pyrrolidin-1-yl)-3,3-dimethyl-1-oxobutan-2-yl)-3,6,9,12,15,18-hexaoxaicosanediamide]
